Assays:
[1] = molecular target: T1, Ephrin type-A receptor 1 (Homo sapiens) (UniProt P21709)
T1 sequence (whole entry): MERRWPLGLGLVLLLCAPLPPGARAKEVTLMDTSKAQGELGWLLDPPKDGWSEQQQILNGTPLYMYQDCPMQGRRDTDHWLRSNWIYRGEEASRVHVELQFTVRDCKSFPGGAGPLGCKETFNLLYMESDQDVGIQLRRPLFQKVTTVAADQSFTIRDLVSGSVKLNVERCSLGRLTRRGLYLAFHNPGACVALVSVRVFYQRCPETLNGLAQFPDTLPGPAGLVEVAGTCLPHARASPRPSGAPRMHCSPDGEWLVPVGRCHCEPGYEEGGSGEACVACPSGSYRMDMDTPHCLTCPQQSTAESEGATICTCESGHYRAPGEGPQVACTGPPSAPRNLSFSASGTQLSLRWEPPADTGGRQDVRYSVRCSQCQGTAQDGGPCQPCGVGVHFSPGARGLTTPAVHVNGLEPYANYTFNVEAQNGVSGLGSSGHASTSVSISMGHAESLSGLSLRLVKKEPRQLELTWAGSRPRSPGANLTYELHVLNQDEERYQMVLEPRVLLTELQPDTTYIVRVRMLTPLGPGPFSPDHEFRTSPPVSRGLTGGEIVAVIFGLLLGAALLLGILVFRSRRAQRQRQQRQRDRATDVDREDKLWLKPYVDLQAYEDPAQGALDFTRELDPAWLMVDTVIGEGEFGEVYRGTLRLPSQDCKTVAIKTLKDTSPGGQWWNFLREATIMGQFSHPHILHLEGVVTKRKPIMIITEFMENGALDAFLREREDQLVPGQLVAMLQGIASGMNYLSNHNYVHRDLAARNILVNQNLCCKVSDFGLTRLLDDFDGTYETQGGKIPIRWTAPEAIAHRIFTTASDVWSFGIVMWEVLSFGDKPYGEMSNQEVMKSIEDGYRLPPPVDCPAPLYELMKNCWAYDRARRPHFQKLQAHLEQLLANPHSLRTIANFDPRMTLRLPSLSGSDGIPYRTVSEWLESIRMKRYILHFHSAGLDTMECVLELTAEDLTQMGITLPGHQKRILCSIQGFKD

[2] = molecular target: Mitogen-activated protein kinase 3 (Homo sapiens) (UniProt P27361)
Chain of Mitogen-activated protein kinase 3 (Homo sapiens) (P27361 whole entry): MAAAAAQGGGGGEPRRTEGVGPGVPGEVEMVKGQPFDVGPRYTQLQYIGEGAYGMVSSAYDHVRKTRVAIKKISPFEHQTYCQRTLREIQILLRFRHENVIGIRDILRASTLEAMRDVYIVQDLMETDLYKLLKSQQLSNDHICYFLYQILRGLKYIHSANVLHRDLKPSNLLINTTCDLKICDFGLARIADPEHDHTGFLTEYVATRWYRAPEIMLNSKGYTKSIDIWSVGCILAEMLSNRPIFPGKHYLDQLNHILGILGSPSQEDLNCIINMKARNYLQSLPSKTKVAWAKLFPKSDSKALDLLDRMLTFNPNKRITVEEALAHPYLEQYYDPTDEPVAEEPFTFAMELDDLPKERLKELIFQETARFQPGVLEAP

[3] = molecular target: T2, Serine/threonine-protein kinase BRSK1 (Homo sapiens) (UniProt Q8TDC3)
T2 sequence (whole entry): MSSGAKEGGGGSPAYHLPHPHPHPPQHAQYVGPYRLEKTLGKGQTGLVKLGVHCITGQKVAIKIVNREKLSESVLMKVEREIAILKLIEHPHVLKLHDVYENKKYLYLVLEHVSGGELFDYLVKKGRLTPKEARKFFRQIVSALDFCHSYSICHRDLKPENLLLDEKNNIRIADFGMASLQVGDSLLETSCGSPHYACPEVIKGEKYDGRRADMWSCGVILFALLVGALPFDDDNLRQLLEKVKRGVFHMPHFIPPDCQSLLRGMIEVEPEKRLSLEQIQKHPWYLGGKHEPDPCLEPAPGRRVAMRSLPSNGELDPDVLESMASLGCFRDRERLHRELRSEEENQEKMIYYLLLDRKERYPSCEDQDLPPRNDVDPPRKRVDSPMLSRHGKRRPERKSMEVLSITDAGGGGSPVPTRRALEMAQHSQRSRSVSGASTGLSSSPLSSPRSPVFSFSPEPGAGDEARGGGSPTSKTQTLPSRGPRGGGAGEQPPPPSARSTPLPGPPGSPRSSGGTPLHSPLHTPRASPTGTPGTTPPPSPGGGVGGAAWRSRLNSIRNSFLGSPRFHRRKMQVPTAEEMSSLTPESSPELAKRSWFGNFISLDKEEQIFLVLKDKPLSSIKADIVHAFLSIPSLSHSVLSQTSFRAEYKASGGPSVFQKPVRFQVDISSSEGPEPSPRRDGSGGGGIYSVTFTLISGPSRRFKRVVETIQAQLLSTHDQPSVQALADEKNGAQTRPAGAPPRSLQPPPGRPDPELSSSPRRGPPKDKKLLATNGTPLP

[4] = molecular target: T3, Tyrosine-protein kinase Mer (Homo sapiens) (UniProt Q12866)
T3 sequence (whole entry): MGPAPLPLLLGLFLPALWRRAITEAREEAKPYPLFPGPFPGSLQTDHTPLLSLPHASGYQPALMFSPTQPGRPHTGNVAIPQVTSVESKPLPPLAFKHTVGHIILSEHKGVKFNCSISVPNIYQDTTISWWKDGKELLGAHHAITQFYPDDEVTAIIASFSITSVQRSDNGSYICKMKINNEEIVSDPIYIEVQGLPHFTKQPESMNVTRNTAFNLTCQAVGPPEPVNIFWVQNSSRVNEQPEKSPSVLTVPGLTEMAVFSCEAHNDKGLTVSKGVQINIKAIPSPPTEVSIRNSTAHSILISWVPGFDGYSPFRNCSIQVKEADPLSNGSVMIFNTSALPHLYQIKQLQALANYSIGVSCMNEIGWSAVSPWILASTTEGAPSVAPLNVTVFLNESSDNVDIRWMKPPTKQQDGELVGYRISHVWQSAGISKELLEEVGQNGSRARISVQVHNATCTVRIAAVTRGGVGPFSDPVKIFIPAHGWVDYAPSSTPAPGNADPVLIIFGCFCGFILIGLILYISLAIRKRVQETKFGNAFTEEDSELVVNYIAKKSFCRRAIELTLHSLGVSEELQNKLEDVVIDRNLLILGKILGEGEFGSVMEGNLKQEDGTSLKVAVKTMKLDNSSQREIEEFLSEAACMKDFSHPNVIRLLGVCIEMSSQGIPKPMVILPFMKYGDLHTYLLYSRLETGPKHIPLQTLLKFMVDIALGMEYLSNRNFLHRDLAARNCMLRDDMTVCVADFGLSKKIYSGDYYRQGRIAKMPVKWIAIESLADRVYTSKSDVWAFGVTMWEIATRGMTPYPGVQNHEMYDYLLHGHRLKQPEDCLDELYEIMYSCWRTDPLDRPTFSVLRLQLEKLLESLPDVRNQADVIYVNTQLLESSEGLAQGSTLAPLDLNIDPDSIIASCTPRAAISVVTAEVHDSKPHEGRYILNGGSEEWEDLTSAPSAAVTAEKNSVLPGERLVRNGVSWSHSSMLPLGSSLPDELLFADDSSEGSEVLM

[5] = test system: Mast/stem cell growth factor receptor Kit (Homo sapiens), P10721 [V559D,V654A]
Chain of Mast/stem cell growth factor receptor Kit (Homo sapiens), P10721 [V559D,V654A] (P10721 whole entry V559D/V654A): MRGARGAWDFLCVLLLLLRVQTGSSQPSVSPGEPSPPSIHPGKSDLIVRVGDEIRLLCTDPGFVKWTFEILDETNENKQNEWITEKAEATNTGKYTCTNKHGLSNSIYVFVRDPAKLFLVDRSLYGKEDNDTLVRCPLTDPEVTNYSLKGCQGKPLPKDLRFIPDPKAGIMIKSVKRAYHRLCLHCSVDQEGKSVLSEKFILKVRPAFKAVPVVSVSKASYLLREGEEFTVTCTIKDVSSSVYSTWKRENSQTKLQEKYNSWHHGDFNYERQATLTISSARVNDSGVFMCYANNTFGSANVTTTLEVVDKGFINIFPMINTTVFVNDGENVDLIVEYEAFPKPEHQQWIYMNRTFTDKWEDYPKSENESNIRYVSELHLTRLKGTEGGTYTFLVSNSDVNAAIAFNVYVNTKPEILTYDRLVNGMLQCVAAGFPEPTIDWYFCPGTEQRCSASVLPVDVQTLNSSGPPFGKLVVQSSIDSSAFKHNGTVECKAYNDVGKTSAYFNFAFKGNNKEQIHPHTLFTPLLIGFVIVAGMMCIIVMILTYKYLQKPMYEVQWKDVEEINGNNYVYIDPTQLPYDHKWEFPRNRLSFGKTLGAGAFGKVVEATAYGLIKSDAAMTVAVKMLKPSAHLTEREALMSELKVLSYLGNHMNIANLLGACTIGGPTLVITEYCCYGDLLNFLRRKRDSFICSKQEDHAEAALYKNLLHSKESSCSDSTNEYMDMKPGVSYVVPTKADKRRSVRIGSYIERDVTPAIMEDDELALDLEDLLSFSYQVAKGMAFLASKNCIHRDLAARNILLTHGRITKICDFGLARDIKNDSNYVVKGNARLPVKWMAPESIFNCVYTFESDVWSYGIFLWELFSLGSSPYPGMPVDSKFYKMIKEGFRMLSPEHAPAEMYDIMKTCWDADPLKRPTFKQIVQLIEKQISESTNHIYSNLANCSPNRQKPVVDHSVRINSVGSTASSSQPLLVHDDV

[6] = molecular target: Tyrosine-protein kinase JAK1 (Homo sapiens) (UniProt P23458)
Chain of Tyrosine-protein kinase JAK1 (Homo sapiens) (P23458 whole entry): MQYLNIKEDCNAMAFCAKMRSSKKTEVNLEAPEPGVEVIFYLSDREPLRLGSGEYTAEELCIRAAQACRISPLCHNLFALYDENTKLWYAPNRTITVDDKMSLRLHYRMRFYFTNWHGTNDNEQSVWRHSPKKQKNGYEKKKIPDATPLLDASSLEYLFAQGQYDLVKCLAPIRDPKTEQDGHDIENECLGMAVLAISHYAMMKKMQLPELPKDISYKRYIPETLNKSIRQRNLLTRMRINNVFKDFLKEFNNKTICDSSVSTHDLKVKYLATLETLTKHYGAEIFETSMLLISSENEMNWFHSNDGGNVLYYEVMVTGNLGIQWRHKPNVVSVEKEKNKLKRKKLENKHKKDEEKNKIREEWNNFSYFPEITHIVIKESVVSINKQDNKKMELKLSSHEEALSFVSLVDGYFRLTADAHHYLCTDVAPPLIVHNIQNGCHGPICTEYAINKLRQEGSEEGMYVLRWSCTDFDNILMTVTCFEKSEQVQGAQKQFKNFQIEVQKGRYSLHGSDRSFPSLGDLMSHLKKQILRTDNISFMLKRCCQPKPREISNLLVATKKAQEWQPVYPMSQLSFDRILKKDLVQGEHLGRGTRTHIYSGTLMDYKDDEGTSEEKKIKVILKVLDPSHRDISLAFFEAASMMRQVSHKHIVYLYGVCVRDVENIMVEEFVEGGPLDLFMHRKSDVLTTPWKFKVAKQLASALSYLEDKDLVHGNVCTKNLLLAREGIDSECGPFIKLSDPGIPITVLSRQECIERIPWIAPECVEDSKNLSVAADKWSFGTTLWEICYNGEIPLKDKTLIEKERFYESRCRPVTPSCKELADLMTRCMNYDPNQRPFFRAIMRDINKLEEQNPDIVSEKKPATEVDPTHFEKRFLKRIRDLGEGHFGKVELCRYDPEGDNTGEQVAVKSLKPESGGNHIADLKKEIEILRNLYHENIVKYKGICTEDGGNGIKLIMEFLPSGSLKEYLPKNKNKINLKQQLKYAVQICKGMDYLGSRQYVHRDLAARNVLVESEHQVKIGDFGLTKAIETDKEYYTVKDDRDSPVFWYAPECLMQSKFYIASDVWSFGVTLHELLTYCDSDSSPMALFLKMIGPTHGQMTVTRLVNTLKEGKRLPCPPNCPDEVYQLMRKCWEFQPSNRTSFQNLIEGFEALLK

[7] = molecular target: Tyrosine-protein kinase ABL1 (Homo sapiens) (UniProt P00519)
Chain of Tyrosine-protein kinase ABL1 (Homo sapiens) (P00519 whole entry): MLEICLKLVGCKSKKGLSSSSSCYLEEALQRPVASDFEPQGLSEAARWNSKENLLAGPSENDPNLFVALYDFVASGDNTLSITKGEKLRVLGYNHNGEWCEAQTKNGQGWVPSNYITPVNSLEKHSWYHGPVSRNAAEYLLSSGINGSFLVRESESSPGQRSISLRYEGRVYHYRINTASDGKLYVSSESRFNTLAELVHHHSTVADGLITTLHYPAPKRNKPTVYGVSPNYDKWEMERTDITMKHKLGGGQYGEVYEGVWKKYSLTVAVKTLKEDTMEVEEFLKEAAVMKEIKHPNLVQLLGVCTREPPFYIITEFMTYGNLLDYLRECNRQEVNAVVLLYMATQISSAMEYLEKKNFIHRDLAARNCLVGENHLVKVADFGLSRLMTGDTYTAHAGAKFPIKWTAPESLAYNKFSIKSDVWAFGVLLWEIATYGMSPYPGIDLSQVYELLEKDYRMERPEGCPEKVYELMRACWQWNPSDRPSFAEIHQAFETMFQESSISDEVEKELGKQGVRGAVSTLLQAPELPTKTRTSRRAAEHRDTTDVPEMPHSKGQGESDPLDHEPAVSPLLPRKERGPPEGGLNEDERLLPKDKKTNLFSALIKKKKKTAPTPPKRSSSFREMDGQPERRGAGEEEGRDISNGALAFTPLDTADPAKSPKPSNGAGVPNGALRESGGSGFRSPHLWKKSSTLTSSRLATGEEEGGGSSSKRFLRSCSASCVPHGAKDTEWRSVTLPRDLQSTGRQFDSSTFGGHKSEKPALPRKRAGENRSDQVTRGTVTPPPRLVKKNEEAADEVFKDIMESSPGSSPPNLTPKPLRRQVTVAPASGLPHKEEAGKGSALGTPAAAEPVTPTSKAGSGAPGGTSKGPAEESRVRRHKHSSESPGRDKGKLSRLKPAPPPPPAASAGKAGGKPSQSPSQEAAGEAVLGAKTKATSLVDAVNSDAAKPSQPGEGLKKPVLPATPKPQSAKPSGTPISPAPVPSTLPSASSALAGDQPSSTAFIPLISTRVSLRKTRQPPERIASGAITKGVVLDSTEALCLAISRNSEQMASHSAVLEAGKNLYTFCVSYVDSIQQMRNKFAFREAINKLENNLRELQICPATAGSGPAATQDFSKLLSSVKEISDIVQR

[8] = molecular target: Serine/threonine-protein kinase Nek10 (Homo sapiens) (UniProt Q6ZWH5)
Chain of Serine/threonine-protein kinase Nek10 (Homo sapiens) (Q6ZWH5 whole entry): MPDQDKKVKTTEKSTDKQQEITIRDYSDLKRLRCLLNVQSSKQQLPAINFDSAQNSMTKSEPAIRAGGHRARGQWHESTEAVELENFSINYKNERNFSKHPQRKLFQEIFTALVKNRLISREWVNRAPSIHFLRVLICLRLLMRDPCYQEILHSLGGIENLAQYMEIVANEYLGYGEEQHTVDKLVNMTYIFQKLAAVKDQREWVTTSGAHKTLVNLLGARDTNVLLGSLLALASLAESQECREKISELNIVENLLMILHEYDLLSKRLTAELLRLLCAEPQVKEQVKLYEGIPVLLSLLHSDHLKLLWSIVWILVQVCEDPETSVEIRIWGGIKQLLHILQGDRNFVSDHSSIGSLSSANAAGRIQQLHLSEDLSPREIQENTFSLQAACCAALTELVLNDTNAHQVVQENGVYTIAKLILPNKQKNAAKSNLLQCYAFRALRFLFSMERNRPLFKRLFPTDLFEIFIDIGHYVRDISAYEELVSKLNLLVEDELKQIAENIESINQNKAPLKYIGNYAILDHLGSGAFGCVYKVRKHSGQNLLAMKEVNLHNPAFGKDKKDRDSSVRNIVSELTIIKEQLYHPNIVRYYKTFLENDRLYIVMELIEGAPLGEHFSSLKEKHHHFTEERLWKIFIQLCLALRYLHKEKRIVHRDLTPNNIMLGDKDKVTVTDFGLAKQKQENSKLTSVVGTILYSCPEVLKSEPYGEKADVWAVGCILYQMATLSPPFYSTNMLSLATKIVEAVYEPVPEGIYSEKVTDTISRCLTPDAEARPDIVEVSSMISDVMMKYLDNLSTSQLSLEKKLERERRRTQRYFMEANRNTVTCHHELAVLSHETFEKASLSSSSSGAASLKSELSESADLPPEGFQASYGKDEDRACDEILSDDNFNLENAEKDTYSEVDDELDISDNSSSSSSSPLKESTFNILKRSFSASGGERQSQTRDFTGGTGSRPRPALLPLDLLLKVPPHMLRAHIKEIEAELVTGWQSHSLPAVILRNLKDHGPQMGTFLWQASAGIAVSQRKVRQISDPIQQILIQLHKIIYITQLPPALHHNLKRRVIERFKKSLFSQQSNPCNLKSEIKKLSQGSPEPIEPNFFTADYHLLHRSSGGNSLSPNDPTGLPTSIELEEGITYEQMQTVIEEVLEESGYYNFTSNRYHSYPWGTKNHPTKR

[9] = Compound concentration 1000.0 nM
[10] = Compound concentration 100.0 nM

Measured: residual activity

C[C@@H]1CN(c2cc(-c3nn(C)c4ccc(OC5(C)CC5)cc34)ncn2)C[C@H](C)O1 [MLi-2-NC]
inactive: [1]; [9] 100% | [2]; [9] 100% | [3]; [9] 97% | [4]; [9] 83% | [5]; [9] 100% | [6]; [9] 84% | [7]; [9] 85% | [8]; [9] 89%

C[C@@H]1CN(c2cc(-c3n[nH]c4ccc(OC5(C)CC5)cc34)ncn2)C[C@H](C)O1 [MLi-2]
inactive: [1]; [10] 76% | [2]; [10] 87% | [3]; [10] 96% | [4]; [10] 97% | [5]; [10] 100% | [6]; [10] 79% | [7]; [10] 87% | [8]; [10] 69%
